Measurements reported in patent publication US20160157484A1, “NATURAL ANTIMICROBIAL COMPOSITIONS” (Lincoln Manufacturing Inc., priority 2011, published 2016).

Test: Solubility and stability of 20% and 25% lauric acid in solvents and solvent mixtures

Glycereth 2-Cocoate
Solubility of 20% Lauric Acid (20% lauric acid in the named solvent): Not Soluble | Solubility of 25% Lauric Acid (25% lauric acid in the named solvent): Not Soluble
